As a reminder, the melting point is the temperature of the solid-liquid transition.

For `Cc1cc(OCc2ccc3cn(-c4ccc(C(F)(F)F)cc4)nc3c2)ccc1CCC(=O)O` [Example 24, 3-{2-Methyl-4-[2-(4-trifluoromethylphenyl)-2H-indazol-6-ylmethoxy]phenyl}propionic Acid], the melting point is 181 to 183 °C.
For the compound `Cc1cc(SCc2cccc3cnn(-c4ccc(C(F)(F)F)cc4)c23)ccc1OCC(=O)O` [Example 34, 2-Methyl-4-[1-(4-trifluoromethylphenyl)-1H-indazol-7-ylmethylsulfanyl]phenoxyacetic Acid], the melting point was in the range of 118 to 121 °C.
The compound `CCc1cc(SCCc2cccc3cn(-c4ccc(C(F)(F)F)cc4)nc23)ccc1OCC(=O)O` [Example 45, (2-Ethyl-4-{2-[2-(4-trifluoromethylphenyl)-2H-indazol-7-yl]ethylsulfanyl}phenoxy)acetic Acid] came in with a melting point of 115 to 117 °C.
With `CC(Sc1ccc(OC(C)(C)C(=O)O)cc1)c1cccc2cn(-c3ccc(C(F)(F)F)cc3)nc12` (racemic) [Example 42, (+/−)-2-Methyl-2-(4-{1-[2-(4-trifluoromethylphenyl)-2H-indazol-7-yl]ethylsulfanyl}phenoxy)propionic Acid], the melting point is 150 to 152 °C.
`Cc1cc(SCc2cccc3cnn(-c4ccc(C(F)(F)F)cc4)c23)ccc1CCC(=O)O` [Example 33, 3-{2-Methyl-4-[1-(4-trifluoromethylphenyl)-1H-indazol-7-ylmethylsulfanyl]phenyl}propionic Acid] returned a melting point of 120 to 123 °C.
As to `Cc1cc(SC(c2ccccc2)c2cccc3c2cnn3-c2ccc(C(F)(F)F)cc2)ccc1OC(C)(C)C(=O)O` (racemic) [Example 92, (+/−)-2-Methyl-2-(2-methyl-4-{phenyl-[1-(4-trifluoromethylphenyl)-1H-indazol-4-yl]methylsulfanyl}phenoxy)propionic Acid], the melting point fell in the range of 181 to 186 °C.
Take `Cc1cc(SCc2ccc3nn(-c4ccc(C(F)(F)F)cc4)cc3c2)ccc1OC(C)(C)C(=O)O` [Example 64, 2-Methyl-2-{2-methyl-4-[2-(4-trifluoromethylphenyl)-2H-indazol-5-ylmethylsulfanyl]phenoxy}propionic Acid]: the melting point lay in the range of 143 to 145 °C.
`Cc1cc(OCc2ccc3nn(-c4ccc(C(F)(F)F)cc4)cc3c2)ccc1OC(C)(C)C(=O)O` [Example 61, 2-Methyl-2-{2-methyl-4-[2-(4-trifluoromethylphenyl)-2H-indazol-5-ylmethoxy]phenoxy}propionic Acid] registered a melting point of 164 to 166 °C.
Take `Cc1cc(SCc2ccc3cn(-c4ccc(C(F)(F)F)cc4)nc3c2)ccc1OC(C)(C)C(=O)O` [Example 53, 2-Methyl-2-{2-methyl-4-[2-(4-trifluoromethylphenyl)-2H-indazol-6-ylmethylsulfanyl]phenoxy}propionic Acid]: the melting point lay in the range of 116 to 118 °C.
The compound `CCc1cc(OCc2ccc3cn(-c4ccc(C(F)(F)F)cc4)nc3c2)ccc1CCC(=O)O` [Example 22, 3-{2-Ethyl-4-[2-(4-trifluoromethylphenyl)-2H-indazol-6-ylmethoxy]phenyl}propionic Acid] showed a melting point of 190 to 192 °C.
The result for `O=C(O)Cc1csc2cc(SCc3cccc4nn(-c5ccc(C(F)(F)F)cc5)cc34)ccc12` [Example 29, 6-[2-(4-Trifluoromethylphenyl)-2H-indazol-4-ylmethylsulfanyl]benzo[b]thiophen-3-ylacetic Acid] reads 183 to 185 °C; that for `Cc1cc(SCc2ccc3cn(-c4ccc(C(F)(F)F)cc4)nc3c2)ccc1CCC(=O)O` [Example 20, 3-{2-Methyl-4-[2-(4-trifluoromethylphenyl)-2H-indazol-6-ylmethylsulfanyl]phenyl}propionic Acid], 130 to 132 °C.
`Cc1cc(SCc2cccc3nn(-c4ccc(C(F)(F)F)cc4)cc23)ccc1CCC(=O)O` [Example 28, 3-{2-Methyl-4-[2-(4-trifluoromethylphenyl)-2H-indazol-4-ylmethylsulfanyl]phenyl}propionic Acid] yielded a melting point of 55 to 59 °C.

For the origin of these results see patent US7544707B2, “Bicyclic derivatives as PPAR modulators” (Eli Lilly and Company, priority 2003, dated 2009).
